Measured values taken from PubChem BioAssay (NCI).
Values joined by “and” are separate entries in the source; they are usually repeats but may differ in a detail not shown here. Equal values may be shown once.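 The compound was tested at five concentrations on cells cultured in 96-well plates, with a 48-hour exposure period. At the GI50, growth is halved. TGI denotes the concentration required for complete inhibition of growth.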

Legend:
Assay in all cases: NCI-60 cell line screen, 48 h
DMS 273 small cell lung = tested on: DMS 273 small cell lung
MALME-3M melanoma = tested on: MALME-3M melanoma
NCI-H226 lung = tested on: NCI-H226 lung
NCI-H23 lung = tested on: NCI-H23 lung
NCI-H460 lung = tested on: NCI-H460 lung
OVCAR-5 ovarian = tested on: OVCAR-5 ovarian
OVCAR-8 ovarian = tested on: OVCAR-8 ovarian
SK-MEL-2 melanoma = tested on: SK-MEL-2 melanoma
DLD-1 colon = tested on: DLD-1 colon
MDA-MB-435 = tested on: MDA-MB-435

SMILES	TGI (DMS 273 small cell lung) [µM]	TGI (MALME-3M melanoma) [µM]	TGI (NCI-H226 lung) [µM]	TGI (NCI-H23 lung) [µM]	TGI (NCI-H460 lung) [µM]	TGI (OVCAR-5 ovarian) [µM]	TGI (OVCAR-8 ovarian) [µM]	TGI (SK-MEL-2 melanoma) [µM]	TGI (DLD-1 colon) [µM]	GI50 (MALME-3M melanoma) [µM]	GI50 (MDA-MB-435) [µM]	TGI (MDA-MB-435) [µM]	GI50 (NCI-H226 lung) [µM]	GI50 (NCI-H23 lung) [µM]	GI50 (NCI-H460 lung) [µM]	GI50 (OVCAR-5 ovarian)	GI50 (OVCAR-8 ovarian) [µM]	GI50 (SK-MEL-2 melanoma) [µM]
Cc1cc2c(=O)cc(-c3ccncc3)oc2c(C(N)=O)c1C	> 100	> 100	> 100	> 100	> 100	> 100	> 100	> 100	–	–	–	–	–	–	–	–	–	–
CC1CC(=O)C(CC(=O)O)[C@H]1C(C(=O)C(=O)Nc1cc(Cl)ccc1Cl)[N+](=O)[O-] (stereo partly drawn)	–	–	> 100	–	> 100	> 100	> 100	–	> 100	–	–	–	–	–	–	–	–	–
CC(=O)Nc1ccc(S(=O)(=O)N2C(=O)CCC2C(=O)Nc2ccccc2)cc1 (stereo not drawn)	–	18.8	20.9	18.6	15.3	20.2	19	9.05	–	3.38	0.582	17.3	3.16	2.23	0.359	3.16 µM	2.23	1.34
CC1(C)N=C(N)N=C(N)N1c1cccc(CC(=O)Nc2ccccc2)c1	–	> 100	> 100	> 100	> 100	> 100	> 100	> 100	–	58.6	4.38	> 100	> 100	14.8	3.63	> 100 µM	76.8	> 100
c1c[nH]c(CN2CCN(Cc3ncc[nH]3)CC2)n1	–	> 100	> 100	> 100	> 100	> 100	> 100	> 100	–	–	–	> 100	–	–	–	–	–	–
CC1SC(c2ccc(OCc3ccccc3)cc2)N(NC(=O)C(O)(c2ccccc2)c2ccccc2)C1=O (stereo not drawn)	–	10.5	15.8	13.8	12.9	16.1	38.6	18.8	–	2.15	3.52	13.8	3.79	2.7	3.53	3.81 µM	12.7	4.36
CC(C)OC(=O)OCOP(=O)(OCOC(=O)OC(C)C)C1CCCN(O)C1=O (stereo not drawn)	–	> 100	> 100	> 100	> 100	> 100	> 100	20.4	–	0.856	5.29	> 100	1.36	8.47	1.14	5.25 µM	0.619	3.1
CCCN1CCCC(c2ccc(Nc3nc(Nc4cc(F)ccc4C(N)=O)c4cc[nH]c4n3)c(OC)c2)C1 (stereo not drawn)	–	6.34	6.68	5.95	2.99	5.36	5.92	5.26	–	2.69	1.04	5.39	3.04	1.5	0.116	0.556 µM	2.47	1.42
CCCCCCCCCCCCCCCCCCCCCCC(=O)N[C@H]1CCc2cc(OC)c(OC)c(OC)c2-c2ccc(SC)c(=O)cc21	> 100	> 100	8.23	62.2	83	> 100	85.6	–	–	–	–	–	–	–	–	–	–	–
CN1CC[C@H](N(C)C(=O)N2CC(c3cc(F)ccc3F)=C[C@@]2(CO)c2ccccc2)[C@H](F)C1	–	27.9	> 100	> 100	> 100	> 100	> 100	79.4	–	–	0.00258	0.00772	40.4	0.0371	0.0308	0.0669 µM and 0.0212 µM	0.058	0.0282
CCn1nc(C#Cc2c(C)ccc3c(Nc4ccc(Cl)cc4)nccc23)c2c(N)ncnc21	–	7.09	12.9	> 100	> 100	> 100	> 100	6.53	–	2.1	1.08	4.57	3.29	3.58	4.22	9.19 µM	4.35	1.92
O=C(N=Nc1c(O)[nH]c2c(Cl)cc(Cl)cc12)C(=O)Nc1cccc(C(F)(F)F)c1	–	> 100	> 100	> 100	> 100	> 100	> 100	> 100	–	–	–	> 100	–	–	–	–	–	–
CCN(CC)CCCC(C)Nc1ccnc2cc(OC)ccc12 (stereo not drawn)	–	50.2	46.6	96.3	> 100	50.2	71.1	52.9	–	22.1	19.9	40.5	22.2	31.6	> 100	21.2 µM	24.3	24.8
COc1cccc(-c2cc(-c3ccc(Nc4nc(Nc5ccc(Cl)cc5)nc(Nc5ccc(Cl)cc5)n4)cc3)nc(N)c2C#N)c1	–	3.45	5.78	> 54	24.4	15.1	> 100	3.65	–	1.69	1.82	4.24	2.16	3.59	3.74	3.3 µM	3.51	1.74
C=C(CN1CCc2ccccc2C1)c1ccc(C(=O)Nc2cccc(N)c2)cc1	–	34.1	50.8	62.3	50	> 100	44.7	48.4	–	15.1	14	31.9	22.3	19.8	19.9	60.9 µM	20.6	23.7
CCOc1ccc(-c2nc3ccc(-c4nc5ccc(N6CCN(C)CC6)cc5[nH]4)cc3[nH]2)cc1OCC	–	1.23	4.8	4.45	10.4	14.2	14.5	3.27	–	0.222	1.01	2.38	1.17	1.52	3.14	4.37 µM	2.66	1.49
C=C(C)[C@@H]1CC[C@]2(C(=O)OC)CC[C@]3(C)[C@H](CC[C@@H]4[C@@]5(C)CC/C(=N\OCCC(=NCCC#N)NOCCC#N)C(C)(C)[C@@H]5CC[C@]43C)[C@@H]12	–	> 50	15.5	> 50	> 50	> 50	> 50	> 50	–	11.8	9.7	> 50	5.43	7.59	11.1	16.7 µM	9.66	13.8
CC(C)c1c(C(=O)Nc2ccccc2)c(-c2ccccc2)c(-c2ccc(F)cc2)n1CC[C@@H](O)C[C@@H](O)CC(=O)O	–	> 100	> 100	> 100	> 100	> 100	> 100	7.49	–	52.8	15.1	> 100	25.5	31	41.3	57.2 µM	20.4	2.24
FC(F)(F)c1ccc(-c2cnc(-c3nn[nH]n3)nc2NC2CCCCCC2)cc1	–	> 10	> 10	> 10	> 10	> 10	> 10	> 10	–	> 10	> 10	> 10	> 10	> 10	> 10	> 10 µM	> 10	> 10
CCc1ccc2cc3c(ccc4ccccc43)c3c2c1CC3	–	> 100	> 100	> 100	> 100	> 100	> 100	> 100	–	> 100	> 100	> 100	> 100	> 100	> 100	> 100 µM	> 100	> 100
C=C1C(=O)O[C@H]2[C@H]1CC/C(COC(=O)NCc1ccc(Cn3c(=O)sn(CCCI)c3=O)cc1)=C\CC[C@@]1(C)O[C@@H]21	–	3.21	37.7	4.91	10.3	4.17	9.87	7.19	–	1.39	1.68	3.3	14.1	2.11	3.2	1.85 µM	3.04	2.42
CNC(=S)N/N=C/CSC/C=N/NC(=S)NC	–	> 100	> 100	> 100	> 100	> 100	> 100	> 100	–	> 100	> 100	> 100	> 100	> 100	> 100	> 100 µM	> 100	> 100
CN(C)c1ccc(-c2cc(-c3cccc(NS(C)(=O)=O)c3)nc(N)c2C#N)cc1	–	47.9	17.6	20.5	18.6	> 74.8	> 87.8	21.8	–	0.948	0.0122	0.035	0.045	0.0457	0.0378	0.121 µM	0.0515	0.0449
